This note sets out measurements from ChEMBL document CHEMBL1201862, “PubChem BioAssay data set” (2004).

Structures are written as SMILES.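 Cells were grown in 96-well plates and exposed to each compound for 48 hours at five concentrations; endpoints were interpolated linearly between bracketing concentrations, or set to the highest concentration if not reached. The concentration for 50% growth inhibition is given as GI50.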 Calls of active or inactive are those of the source. Rule as the data show it: active = GI50 up to about 1.1 µM and inactive = higher.

Test systems include HCC 2998; SN12C; OVCAR-4; MCF7; MDA-MB-435; NCI/ADR-RES; SNB-75; SF-539; M14; COLO 205; NCI-H226; IGROV-1; OVCAR-3; SW-620; HT-29; SK-MEL-5; EKVX; HCT-15; UACC-62.
What all share (assay): inhibition of tumour cell growth, NCI panel, 48 h

Regarding `N#CCc1nc(O)c2ccccc2n1`, the GI50 with HCC 2998 was > 100 µM (inactive); in the assay with SN12C, > 100 µM (inactive); with OVCAR-4 it was > 100 µM (inactive); in the assay on MCF7, 28.1 µM (inactive); in the assay on MDA-MB-435 it was > 100 µM (inactive); in the assay on NCI/ADR-RES it was > 100 µM (inactive). Besides, the GI50 was > 100 µM (inactive) in the assay with SNB-75; > 100 µM (inactive) in the assay with SF-539; > 100 µM (inactive) in the assay with M14; 98.9 µM (inactive) in the assay with COLO 205; > 100 µM (inactive) in the assay on NCI-H226; > 100 µM (inactive) in the assay on IGROV-1. Moreover, the GI50 in the assay with OVCAR-3 is 69.7 µM (inactive); in the assay on SW-620, > 100 µM (inactive); in the assay on HT-29, > 100 µM (inactive); in the assay with SK-MEL-5, > 100 µM (inactive); with EKVX, > 100 µM (inactive); with HCT-15, 48 µM.

As to `COP(=O)(OC)OCN(C)CC/C=C(\C)CC/C=C(\C)CCC=C(C)C`, the GI50 with HCC 2998 is 11.6 µM (inactive); in the assay on SN12C, 15.6 µM (inactive); in the assay on OVCAR-4, 31.3 µM (inactive); with MCF7 it was 15.2 µM (inactive); in the assay with MDA-MB-435 it was 18.5 µM (inactive); in the assay with NCI/ADR-RES, 13 µM (inactive). For the same molecule, the GI50 in the assay with SNB-75 was 14.8 µM (inactive); in the assay on SF-539, 15.7 µM (inactive); in the assay on M14 it was 14.5 µM (inactive); with COLO 205, 16.9 µM (inactive); with NCI-H226, 15.4 µM (inactive); in the assay with IGROV-1 it was 12.5 µM (inactive). In addition, the GI50 is 15.3 µM (inactive) with OVCAR-3; 15.6 µM (inactive) in the assay on SW-620; 11.8 µM (inactive) in the assay with SK-MEL-5; 29.2 µM (inactive) in the assay on EKVX; 16 µM with HCT-15.

Turning to `O=S(=O)(Nc1nc2ccccc2nc1Nc1cccc2ccccc12)c1ccccc1`, the GI50 is 2.16 µM (inactive) with HCC 2998; > 100 µM (inactive) with SN12C; 1.24 µM (inactive) in the assay with OVCAR-4; > 100 µM (inactive) in the assay on MCF7; > 100 µM (inactive) in the assay on MDA-MB-435; 13.6 µM (inactive) in the assay with NCI/ADR-RES. Besides, the GI50 is 15.5 µM (inactive) in the assay on SNB-75; 44.9 µM (inactive) in the assay on SF-539; 62.4 µM (inactive) in the assay on M14; 40.6 µM (inactive) in the assay on NCI-H226; 5.9 µM (inactive) in the assay on IGROV-1; 8.59 µM (inactive) in the assay on UACC-62. The GI50 in the assay on OVCAR-3 is 4.67 µM (inactive); in the assay on SW-620, 25.8 µM (inactive); in the assay on SK-MEL-5, 10.7 µM (inactive); in the assay with EKVX it was 8.97 µM (inactive).

As to `CC1(C)C(CCO)CC1n1cc(I)c(=O)[nH]c1=O` (stereo not drawn), the GI50 in the assay with HCC 2998, in the assay with SN12C, with OVCAR-4, in the assay with MCF7, with MDA-MB-435 and in the assay on NCI/ADR-RES was > 100 µM (inactive) in each case. For the same molecule, the GI50 with SNB-75 is > 100 µM (inactive); in the assay on SF-539 it was > 100 µM (inactive); in the assay on M14, > 100 µM (inactive); with COLO 205, > 100 µM (inactive); in the assay with NCI-H226 it was > 100 µM (inactive); in the assay with UACC-62, 21.1 µM (inactive). Further, the GI50 in the assay on OVCAR-3 is > 100 µM (inactive); in the assay on SW-620 it was > 100 µM (inactive); with SK-MEL-5 it was > 100 µM (inactive); in the assay with EKVX it was > 100 µM (inactive); in the assay with HCT-15, above 100 µM.

Take `CCN1CCC(O)(c2ccc(Oc3ccc(Cl)cc3)cc2)C(C(=O)c2ccc(Oc3ccc(Cl)cc3)cc2)C1` (stereo not drawn): the GI50 is 12.5 µM (inactive) with HCC 2998; 13.7 µM (inactive) in the assay on SN12C; 14.3 µM (inactive) with OVCAR-4; 5.41 µM (inactive) in the assay on MCF7; 16.4 µM (inactive) with MDA-MB-435; 17.3 µM (inactive) in the assay with NCI/ADR-RES. Also, the GI50 was 12.9 µM (inactive) with SNB-75; 15.3 µM (inactive) in the assay with SF-539; 14 µM (inactive) in the assay with M14; 13.2 µM (inactive) in the assay on COLO 205; 15 µM (inactive) in the assay with NCI-H226; 8.38 µM (inactive) in the assay on IGROV-1. For the same molecule, the GI50 in the assay on UACC-62 is 12.2 µM (inactive); in the assay with SW-620, 12.8 µM (inactive); in the assay with HT-29 it was 5.07 µM (inactive); with SK-MEL-5, 12.2 µM (inactive); in the assay on EKVX, 16.8 µM (inactive); with HCT-15 it was 7.35 µM.

Take `O=[N+]([O-])/C(C(Cl)=C(Cl)Cl)=C(\Nc1cccc2cccnc12)SCc1ccccc1`: the GI50 in the assay with HCC 2998 was 18.2 µM (inactive); in the assay on SN12C, 25.3 µM (inactive); with OVCAR-4, 24.4 µM (inactive); in the assay with MCF7, 15.3 µM (inactive); with MDA-MB-435, 21 µM (inactive); in the assay on NCI/ADR-RES, 21.2 µM (inactive). Also, the GI50 in the assay with SNB-75 is 18.3 µM (inactive); in the assay on SF-539, 16.9 µM (inactive); with M14 it was 27.5 µM (inactive); in the assay on COLO 205, 18.8 µM (inactive); with NCI-H226 it was 20.3 µM (inactive); with UACC-62, 23.3 µM (inactive). For the same molecule, the GI50 in the assay with OVCAR-3 was 15.5 µM (inactive); in the assay with SW-620, 18.4 µM (inactive); in the assay on HT-29, 23.6 µM (inactive); in the assay on EKVX it was 21.1 µM (inactive); in the assay on HCT-15, 19.9 µM.

In the case of `CN(C)CCNc1nc(-c2ccc3ccccc3c2)nc2[nH]cnc12`, the GI50 in the assay with HCC 2998 was 1.99 µM (inactive); in the assay with SN12C, 11.1 µM (inactive); in the assay with OVCAR-4, 10.7 µM (inactive); with MCF7, 7.33 µM (inactive); in the assay on MDA-MB-435, 11 µM (inactive); with NCI/ADR-RES it was 7.33 µM (inactive). Moreover, the GI50 in the assay on SNB-75 is 1.1 µM (active); with M14, 11.4 µM (inactive); with COLO 205, 7.55 µM (inactive); in the assay on NCI-H226 it was 2.59 µM (inactive); in the assay with IGROV-1, 2.31 µM (inactive); with UACC-62 it was 10.8 µM (inactive). For the same molecule, the GI50 with OVCAR-3 is 7.64 µM (inactive); in the assay with SW-620 it was 11.4 µM (inactive); in the assay with HT-29, 3.84 µM (inactive); with SK-MEL-5, 10.7 µM (inactive); in the assay with EKVX it was 4.55 µM (inactive); with HCT-15, 5.82 µM.

On to `O=S(=O)(c1cc(Cl)ccc1Cl)N1CCN(S(=O)(=O)c2cc(Cl)ccc2Cl)CC1`, for which the GI50 with HCC 2998, in the assay on SN12C, in the assay with MCF7, in the assay on MDA-MB-435, with NCI/ADR-RES and in the assay with SNB-75 was > 100 µM (inactive) throughout. Besides, the GI50 in the assay with SF-539 was > 100 µM (inactive); in the assay with M14 it was > 100 µM (inactive); in the assay with NCI-H226, > 100 µM (inactive); in the assay on IGROV-1, > 100 µM (inactive); with UACC-62 it was 0.489 µM (active); in the assay on OVCAR-3 it was > 100 µM (inactive). Besides, the GI50 in the assay on SW-620 was > 100 µM (inactive); in the assay with HT-29, > 100 µM (inactive); with SK-MEL-5, > 100 µM (inactive); with HCT-15, above 100 µM.

Consider `CCOC(=O)C(Cc1ccccc1)(Cc1ccc(O)cn1)NC(=O)c1ccccc1` (stereo not drawn), for which the GI50 was 25.1 µM (inactive) with HCC 2998; 27.4 µM (inactive) in the assay on OVCAR-4; 22.3 µM (inactive) in the assay with MCF7; 9.51 µM (inactive) in the assay with MDA-MB-435; 26.4 µM (inactive) with NCI/ADR-RES; 21.6 µM (inactive) with SNB-75. The GI50 was 23.8 µM (inactive) in the assay with SF-539; 17.9 µM (inactive) with M14; 24.4 µM (inactive) with COLO 205; 29.2 µM (inactive) with NCI-H226; 22.6 µM (inactive) in the assay with IGROV-1; 16.7 µM (inactive) with UACC-62. Also, the GI50 in the assay on OVCAR-3 is 19.2 µM (inactive); with SW-620 it was 29.6 µM (inactive); in the assay with HT-29, 26.5 µM (inactive); in the assay with SK-MEL-5, 16.5 µM (inactive); with EKVX, 25.9 µM (inactive); in the assay on HCT-15, 19.7 µM.

As to `CC1=CC(=O)/C(=C/n2c(=S)[nH]c3ccccc32)C(=O)O1`, the GI50 in the assay with HCC 2998, with SN12C, in the assay with OVCAR-4, with MCF7, in the assay on MDA-MB-435 and in the assay on NCI/ADR-RES was > 100 µM (inactive) throughout. In addition, the GI50 in the assay with SNB-75 was 35.7 µM (inactive); in the assay with SF-539 it was > 100 µM (inactive); with M14, > 100 µM (inactive); in the assay with COLO 205, > 100 µM (inactive); with NCI-H226 it was > 100 µM (inactive); in the assay on IGROV-1, > 100 µM (inactive). Besides, the GI50 is > 100 µM (inactive) with UACC-62; > 100 µM (inactive) in the assay with OVCAR-3; > 100 µM (inactive) with SW-620; > 100 µM (inactive) with HT-29; 76.4 µM (inactive) in the assay on EKVX; above 100 µM with HCT-15.

Regarding `Nc1ccccc1C(=O)CCc1c[nH]c2ccccc12`, the GI50 with HCC 2998 was > 100 µM (inactive); with SN12C, > 100 µM (inactive); in the assay on OVCAR-4 it was 20.3 µM (inactive); with MCF7, > 100 µM (inactive); with MDA-MB-435, > 100 µM (inactive); in the assay with NCI/ADR-RES, > 100 µM (inactive). Moreover, the GI50 in the assay with SNB-75 is 29.4 µM (inactive); with SF-539, 30.3 µM (inactive); with M14 it was > 100 µM (inactive); in the assay with NCI-H226, > 100 µM (inactive); in the assay on IGROV-1, 35.7 µM (inactive); with UACC-62 it was 25.1 µM (inactive). Moreover, the GI50 with OVCAR-3 is > 100 µM (inactive); in the assay with SW-620 it was > 100 µM (inactive); in the assay on HT-29, > 100 µM (inactive); in the assay with EKVX, 48.3 µM (inactive); with HCT-15 it was 93.3 µM.

Consider `NC(=O)NC(=O)c1cccc(NC(=O)CI)c1`, for which the GI50 in the assay with HCC 2998 was 0.228 µM (active); in the assay with SN12C, < 0.0197 µM (active); in the assay on OVCAR-4, 0.148 µM (active); in the assay with MCF7, < 0.01 µM (active); in the assay with MDA-MB-435 it was < 0.01 µM (active); in the assay with NCI/ADR-RES it was 0.039 µM (active). In addition, the GI50 in the assay with SNB-75 is 0.235 µM (active); with SF-539, < 0.0229 µM (active); in the assay on COLO 205 it was < 0.01 µM (active); in the assay on NCI-H226 it was < 0.0367 µM (active); with IGROV-1, 0.0483 µM (active); in the assay on UACC-62, < 0.0152 µM (active). In addition, the GI50 in the assay with OVCAR-3 was < 0.01 µM (active); with SW-620 it was < 0.01 µM (active); in the assay on HT-29, < 0.0178 µM (active); in the assay on SK-MEL-5, < 0.0105 µM (active); in the assay with EKVX, 0.863 µM (active); in the assay on HCT-15, below 0.0159 µM.
